In PubChem BioAssay AID330 (DTP/NCI, 2004):
“And” between values parts separate entries of the source, which are not always exact repeats. Equal values may be shown once. Inconclusive results and toxic doses are left out. The calls were made as follows: active = survival T/C of 150% or more; inactive = T/C below 125% in these data.

Tested on: P388 leukemia ip, CD2F1 mice, survival T/C
Experiment: NCI In Vivo Anticancer Drug Screen. Data for tumor model P388 Leukemia (intraperitoneal) in CD2F1 (CDF1) mice
Details: endpoint: median survival time, higher = longer survival
How it was run: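 Mice carrying the transplanted tumor received test compound or vehicle. Survival was recorded in each group, and the value is the treated-group measurement divided by that of the vehicle-treated control group.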

[1] = dose: 50.0 mg/kg/injection, schedule: Q01DX005 (ip), vehicle: Klucel (hydroxypropylcellulose) (HPC)
[2] = dose: 100.0 mg/kg/injection, schedule: Q01DX005 (ip), vehicle: Klucel (hydroxypropylcellulose) (HPC)
[3] = dose: 100.0 mg/kg/injection, schedule: Q04DX003 (ip), vehicle: saline with Tween-80
[4] = dose: 200.0 mg/kg/injection, schedule: Q04DX003 (ip), vehicle: saline with Tween-80
[5] = dose: 400.0 mg/kg/injection, schedule: Q04DX003 (ip), vehicle: saline with Tween-80
[6] = dose: 12.5 mg/kg/injection, schedule: Q01DX009 (ip), vehicle: saline with Tween-80
[7] = dose: 50.0 mg/kg/injection, schedule: Q01DX009 (ip), vehicle: saline
[8] = dose: 100.0 mg/kg/injection, schedule: Q01DX009 (ip), vehicle: saline
[9] = dose: 200.0 mg/kg/injection, schedule: Q01DX009 (ip), vehicle: saline
[10] = dose: 25.0 mg/kg/injection, schedule: Q01DX009 (ip), vehicle: saline with Tween-80
[11] = dose: 50.0 mg/kg/injection, schedule: Q01DX009 (ip), vehicle: saline with Tween-80
[12] = dose: 200.0 mg/kg/injection, schedule: Q01DX005 (ip), vehicle: Klucel (hydroxypropylcellulose) (HPC)
[13] = dose: 6.25 mg/kg/injection, schedule: Q01DX009 (ip), vehicle: saline
[14] = dose: 12.5 mg/kg/injection, schedule: Q01DX009 (ip), vehicle: saline
[15] = dose: 100.0 mg/kg/injection, schedule: Q01DX001 (ip), vehicle: saline with Tween-80
[16] = dose: 200.0 mg/kg/injection, schedule: Q01DX001 (ip), vehicle: saline with Tween-80
[17] = dose: 400.0 mg/kg/injection, schedule: Q01DX001 (ip), vehicle: saline with Tween-80
[18] = dose: 30.0 mg/kg/injection, schedule: Q01DX005 (ip), vehicle: saline with Tween-80
[19] = dose: 60.0 mg/kg/injection, schedule: Q01DX005 (ip), vehicle: saline with Tween-80

Measured: T/C

COc1ccc(/C=C/C2=CC(=O)CC(/C=C/c3ccc(OC)c(OC)c3)C2)cc1OC (configuration not stated)
inactive: dose: 100.0 mg/kg/injection, schedule: Q01DX001 (ip), vehicle: Klucel (hydroxypropylcellulose) (HPC) 89 % of control | dose: 200.0 mg/kg/injection, schedule: Q01DX001 (ip), vehicle: Klucel (hydroxypropylcellulose) (HPC) 100 % of control | dose: 400.0 mg/kg/injection, schedule: Q01DX001 (ip), vehicle: Klucel (hydroxypropylcellulose) (HPC) 97 % of control

Nc1c(Cl)ncnc1NCCN1CCOCC1
inactive: [1] 99 % of control | [2] 96 % of control

COc1ccc2c(c1)-c1nn(CCO)c(-c3cccnc3)c1CC2
inactive: dose: 100.0 mg/kg/injection, schedule: Q04DX002 (ip), vehicle: DMSO 94 % of control | dose: 200.0 mg/kg/injection, schedule: Q04DX002 (ip), vehicle: DMSO 102 % of control

O=C(CSC(=S)N1CCCCC1)c1ccc([N+](=O)[O-])cc1
inactive: dose: 12.5 mg/kg/injection, schedule: Q01DX009 (ip), vehicle: distilled water + Tween-80 98 % of control | dose: 25.0 mg/kg/injection, schedule: Q01DX009 (ip), vehicle: distilled water + Tween-80 96 % of control | dose: 50.0 mg/kg/injection, schedule: Q01DX009 (ip), vehicle: distilled water + Tween-80 90 % of control | dose: 100.0 mg/kg/injection, schedule: Q01DX009 (ip), vehicle: distilled water + Tween-80 90 % of control | dose: 200.0 mg/kg/injection, schedule: Q01DX009 (ip), vehicle: distilled water + Tween-80 89 % of control

O=C(O)c1cc(I)cc(I)c1
inactive: dose: 37.5 mg/kg/injection, schedule: Q01DX009 (ip), vehicle: saline with Tween-80 99 % of control | dose: 75.0 mg/kg/injection, schedule: Q01DX009 (ip), vehicle: saline with Tween-80 104 % of control | [3] 98 % of control | dose: 150.0 mg/kg/injection, schedule: Q01DX009 (ip), vehicle: saline with Tween-80 95 % of control | [4] 96 % of control | [5] 96 % of control

O=[N+]([O-])c1cc([N+](=O)[O-])c(Cl)s1
inactive: dose: 6.25 mg/kg/injection, schedule: Q01DX009 (ip), vehicle: saline with Tween-80 104 % of control | [6] 100 % of control

CSCC(=O)O
inactive: [7] 106 % of control | [8] 106 % of control | [9] 97 % of control

C/C=C(\C(=O)O)S(=O)(=O)O.[Pb]
inactive: [10] 100 % of control | [11] 90 % of control

O=C(/C=C/c1ccc2c(c1)OCO2)c1ccccc(=O)c1O
inactive: dose: 25.0 mg/kg/injection, schedule: Q01DX005 (ip), vehicle: Klucel (hydroxypropylcellulose) (HPC) 95 % of control | [1] 100 % of control | [2] 101 % of control | [12] 118 % of control

Nc1nc(N)c(Cc2ccccn2)cc1Cc1ccccn1
inactive: [1] 98 % of control | [2] 103 % of control

CC1(C)CCSC(/C=C/c2ccccc2)=N1
inactive: dose: 100.0 mg/kg/injection, schedule: Q01DX009 (ip), vehicle: other 109 % of control | dose: 200.0 mg/kg/injection, schedule: Q01DX009 (ip), vehicle: other 115 % of control | dose: 400.0 mg/kg/injection, schedule: Q01DX009 (ip), vehicle: other 108 % of control

CCCCCCCCCCCCCCCCCCOS(=O)(=O)O (tested in a mixture with another compound)
inactive: [7] 102 % of control | [8] 104 % of control | [9] 104 % of control

CCCCCCCCCCCCCC[N+]1(CC)CCOCC1
inactive: dose: 3.12 mg/kg/injection, schedule: Q01DX009 (ip), vehicle: saline 119 % of control | [13] 115 % of control | [14] 123 % of control

N#CC(C#N)=Cc1cc2c3c(c1)CCCN3CCC2
inactive: [15] 100 % of control | [16] 100 % of control | [17] 90 % of control

NC(CSC(c1ccccc1)c1ccccc1)C(=O)NCC(=O)O (configuration not stated)
inactive: [1] 99 % of control | [2] 99 % of control | [12] 104 % of control

OC(c1cc(-c2ccc(C(F)(F)F)cc2)nc(C(F)(F)F)c1)C1CCCCN1 (configuration not stated)
inactive: [13] 101 % of control | [6] 95 % of control | [14] 103 % of control | [10] 100 % of control | dose: 25.0 mg/kg/injection, schedule: Q01DX009 (ip), vehicle: saline 107 % of control

O=C(NCCCl)Nc1ccccc1C(=O)O
inactive: [11] 90 % of control | dose: 100.0 mg/kg/injection, schedule: Q01DX009 (ip), vehicle: saline with Tween-80 95 % of control | dose: 200.0 mg/kg/injection, schedule: Q01DX009 (ip), vehicle: saline with Tween-80 99 % of control

CCOC(=O)C1=CNc2c(C#N)cnn2C1(C(=O)OCC)c1cn(C)c2ccccc12 (configuration not stated)
inactive: dose: 6.25 mg/kg/injection, schedule: Q01DX005 (ip), vehicle: saline with Tween-80 99 % of control | dose: 12.5 mg/kg/injection, schedule: Q01DX005 (ip), vehicle: saline with Tween-80 95 % of control | dose: 25.0 mg/kg/injection, schedule: Q01DX005 (ip), vehicle: saline with Tween-80 87 % of control

CC(O)(c1ccccc1)C1C(c2ccccc2)N1Cc1ccccc1 (configuration not stated)
inactive: dose: 50.0 mg/kg/injection, schedule: Q04DX003 (ip), vehicle: saline sonified 100 % of control | dose: 100.0 mg/kg/injection, schedule: Q04DX003 (ip), vehicle: saline sonified 91 % of control

Cc1ccnc(NCc2ccccn2)c1
inactive: dose: 50.0 mg/kg/injection, schedule: Q01DX005 (ip), vehicle: saline with Tween-80 105 % of control | dose: 100.0 mg/kg/injection, schedule: Q01DX005 (ip), vehicle: saline with Tween-80 102 % of control

CC(C)C1=C2C3CC(O)C(C=O)=CC(=O)C3(C)CCC2(C)CC1 (configuration not stated)
inactive: dose: 6.25 mg/kg/injection, schedule: Q01DX009 (ip), vehicle: saline + alcohol 112 % of control | dose: 12.5 mg/kg/injection, schedule: Q01DX009 (ip), vehicle: saline + alcohol 110 % of control | dose: 25.0 mg/kg/injection, schedule: Q01DX009 (ip), vehicle: saline + alcohol 108 % of control

CCCCCCCCCCC(CCCCCC)C(=O)O (configuration not stated)
inactive: dose: 75.0 mg/kg/injection, schedule: Q01DX001 (ip), vehicle: saline with Tween-80 104 % of control | dose: 150.0 mg/kg/injection, schedule: Q01DX001 (ip), vehicle: saline with Tween-80 104 % of control | dose: 300.0 mg/kg/injection, schedule: Q01DX001 (ip), vehicle: saline with Tween-80 100 % of control

O=C1c2ccccc2CCCC12OC2c1ccccn1 (configuration not stated)
inactive: dose: 25.0 mg/kg/injection, schedule: Q01DX009 (ip), vehicle: Klucel (hydroxypropylcellulose) (HPC) 98 % of control | dose: 50.0 mg/kg/injection, schedule: Q01DX009 (ip), vehicle: Klucel (hydroxypropylcellulose) (HPC) 106 % of control | dose: 100.0 mg/kg/injection, schedule: Q01DX009 (ip), vehicle: Klucel (hydroxypropylcellulose) (HPC) 98 % of control

CCN(CCN1C(=O)COCC1=O)c1ccccc1
inactive: [3] 105 % of control | [4] 104 % of control | [5] 96 % of control

CCCCCCC(CCC1CCCCC1)C(=O)O (configuration not stated)
inactive: dose: 50.0 mg/kg/injection, schedule: Q01DX001 (ip), vehicle: saline with Tween-80 109 % of control | [15] 109 % of control | [16] 100 % of control

c1cc(-c2cc3ccc(C4=NCCN4)cc3s2)ccc1C1=NCCN1
inactive: dose: 25.0 mg/kg/injection, schedule: Q04DX003 (ip), vehicle: saline 115 % of control | dose: 50.0 mg/kg/injection, schedule: Q04DX003 (ip), vehicle: saline 115 % of control

Cc1cc(NCc2ccccc2)cc(=O)[nH]1
inactive: [15] 95 % of control | [16] 89 % of control | [17] 87 % of control

CC(CN(C)C)C(=O)/C=C/c1ccc(Cl)c(Cl)c1 (configuration not stated)
inactive: dose: 15.0 mg/kg/injection, schedule: Q01DX005 (ip), vehicle: saline with Tween-80 122 % of control | [18] 116 % of control | [19] 111 % of control and 117 % of control
